Test results reported in ChEMBL document CHEMBL3046274, “Toxicity of imidacloprid to developmental stages of Rhynchophorus ferrugineus (Curculionidae: Coleoptera): Laboratory and field tests” (Crop Prot, 2006).

How the values were obtained:
Type in all cases: functional
[1] = test system: Rhynchophorus ferrugineus; assay: Pesticidal activity against Rhynchophorus ferrugineus (red palm weevil) larvae assessed as mortality at 0.5 ppm, po at 18 hr post-treatment relative to control
[2] = test system: Rhynchophorus ferrugineus; assay: Pesticidal activity against Rhynchophorus ferrugineus (red palm weevil) larvae infested date palm tree assessed as mortality at 20 ml/4l of water applied through soil-drench irrigation measured after 3 weeks relative to control
[3] = test system: Rhynchophorus ferrugineus; assay: Pesticidal activity against Rhynchophorus ferrugineus (red palm weevil) larvae assessed as mortality at 100 ppm administered topically at 36 hr post-treatment
[4] = test system: Rhynchophorus ferrugineus; assay: Pesticidal activity against adult Rhynchophorus ferrugineus (red palm weevil) assessed as mortality at 100 ppm administered topically at 18 hr post-treatment
[5] = test system: Rhynchophorus ferrugineus; assay: Pesticidal activity against Rhynchophorus ferrugineus (red palm weevil) larvae assessed as mortality at 0.5 ppm, po at 72 hr post-treatment relative to control
[6] = test system: Rhynchophorus ferrugineus; assay: Pesticidal activity against Rhynchophorus ferrugineus (red palm weevil) larvae assessed as mortality at 300 ppm administered topically at 36 hr post-treatment
[7] = test system: Rhynchophorus ferrugineus; assay: Pesticidal activity against adult Rhynchophorus ferrugineus (red palm weevil) assessed as mortality at 500 ppm administered topically at 72 hr post-treatment
[8] = test system: Rhynchophorus ferrugineus; assay: Pesticidal activity against adult Rhynchophorus ferrugineus (red palm weevil) assessed as time required for 100% mortality at 3.5 ml/l administered topically
[9] = test system: Rhynchophorus ferrugineus; assay: Contact toxicity against Rhynchophorus ferrugineus (red palm weevil) adults assessed as time required for 50% mortality at 3.5 ml/l for 5 min
[10] = test system: Rhynchophorus ferrugineus; assay: Pesticidal activity against Rhynchophorus ferrugineus (red palm weevil) cocoons assessed as time required for total mortality at 3.5 ml/l administered by dipping for 5 secs
[11] = test system: Rhynchophorus ferrugineus; assay: Pesticidal activity against Rhynchophorus ferrugineus (red palm weevil) larvae assessed as mortality at 500 ppm administered topically at 48 hr post-treatment
[12] = test system: Rhynchophorus ferrugineus; assay: Pesticidal activity against adult Rhynchophorus ferrugineus (red palm weevil) assessed as mortality at 100 ppm administered topically at 36 hr post-treatment
[13] = test system: Rhynchophorus ferrugineus; assay: Contact toxicity against Rhynchophorus ferrugineus (red palm weevil) adults assessed as time required for 50% reversible knockdown at 3.5 ml/l for 2 min
[14] = test system: Rhynchophorus ferrugineus; assay: Pesticidal activity against adult Rhynchophorus ferrugineus (red palm weevil) assessed as time required for reversible knockdown at 3.5 ml/l administered topically
[15] = test system: Rhynchophorus ferrugineus; assay: Pesticidal activity against adult Rhynchophorus ferrugineus (red palm weevil) assessed as time required for reversible knockdown at 2.5 ml/l administered topically
[16] = test system: Rhynchophorus ferrugineus; assay: Pesticidal activity against Rhynchophorus ferrugineus (red palm weevil) cocoon assessed as mortality at 2 ppm administered by dipping for 3 min measured at 114 hr post-treatment relative to control
[17] = test system: Rhynchophorus ferrugineus; assay: Pesticidal activity against adult Rhynchophorus ferrugineus (red palm weevil) assessed as mortality at 100 ppm administered topically at 48 hr post-treatment
[18] = test system: Rhynchophorus ferrugineus; assay: Pesticidal activity Rhynchophorus ferrugineus (red palm weevil) larvae assessed as time required after hatching for 100% mortality at 2.5 ml/l administered topically measured up to 14 days relative to control
[19] = test system: Rhynchophorus ferrugineus; assay: Contact toxicity against Rhynchophorus ferrugineus (red palm weevil) adults assessed as time required for 50% mortality at 2.5 ml/l for 2 min
[20] = test system: Rhynchophorus ferrugineus; assay: Pesticidal activity against Rhynchophorus ferrugineus (red palm weevil) larvae assessed as mortality at 300 ppm administered topically at 48 hr post-treatment
[21] = test system: Rhynchophorus ferrugineus; assay: Pesticidal activity against Rhynchophorus ferrugineus (red palm weevil) cocoon assessed as mortality at 2 ppm administered by dipping for 3 min measured at 18 hr post-treatment relative to control
[22] = test system: Rhynchophorus ferrugineus; assay: Pesticidal activity against Rhynchophorus ferrugineus (red palm weevil) cocoon assessed as mortality at 2 ppm administered by dipping for 3 min measured at 90 hr post-treatment relative to control
[23] = test system: Rhynchophorus ferrugineus; assay: Contact toxicity against Rhynchophorus ferrugineus (red palm weevil) adults assessed as time required for 100% mortality at 1.5 ml/l for 5 min
[24] = test system: Rhynchophorus ferrugineus; assay: Pesticidal activity against adult Rhynchophorus ferrugineus (red palm weevil) assessed as mortality at 0.5 ppm, po at 18 hr post-treatment relative to control
[25] = test system: Rhynchophorus ferrugineus; assay: Pesticidal activity against Rhynchophorus ferrugineus (red palm weevil) cocoon assessed as mortality at 1.5 ppm administered by dipping for 3 min measured at 90 hr post-treatment relative to control
[26] = test system: Rhynchophorus ferrugineus; assay: Pesticidal activity against adult Rhynchophorus ferrugineus (red palm weevil) assessed as mortality at 1 ppm, po at 18 hr post-treatment relative to control
[27] = test system: Rhynchophorus ferrugineus; assay: Pesticidal activity against adult Rhynchophorus ferrugineus (red palm weevil) assessed as mortality at 1.5 ppm, po at 90 hr post-treatment relative to control
[28] = test system: Rhynchophorus ferrugineus; assay: Pesticidal activity against adult Rhynchophorus ferrugineus (red palm weevil) assessed as mortality at 1 ppm, po at 114 hr post-treatment relative to control
[29] = test system: Rhynchophorus ferrugineus; assay: Pesticidal activity against adult Rhynchophorus ferrugineus (red palm weevil) infested date palm tree assessed as mortality of collected live stage at 20 ml/4l of water applied through soil-drench irrigation measured after 3 weeks relative to control
[30] = test system: Rhynchophorus ferrugineus; assay: Pesticidal activity against Rhynchophorus ferrugineus (red palm weevil) larvae assessed as mortality at 4 ppm, po at 114 hr post-treatment relative to control
[31] = test system: Rhynchophorus ferrugineus; assay: Pesticidal activity against adult Rhynchophorus ferrugineus (red palm weevil) assessed as mortality at 500 ppm administered topically at 36 hr post-treatment
[32] = test system: Rhynchophorus ferrugineus; assay: Pesticidal activity against Rhynchophorus ferrugineus (red palm weevil) cocoon assessed as mortality at 1.5 ppm administered by dipping for 3 min measured at 72 hr post-treatment relative to control
[33] = test system: Rhynchophorus ferrugineus; assay: Contact toxicity against Rhynchophorus ferrugineus (red palm weevil) adults assessed as time required for 100% mortality at 3.5 ml/l for 5 min
[34] = test system: Rhynchophorus ferrugineus; assay: Pesticidal activity against adult Rhynchophorus ferrugineus (red palm weevil) assessed as mortality at 1 ppm, po at 48 hr post-treatment relative to control
[35] = test system: Rhynchophorus ferrugineus; assay: Pesticidal activity against Rhynchophorus ferrugineus (red palm weevil) larvae assessed as mortality at 1.5 ppm, po at 24 hr post-treatment relative to control
[36] = test system: Rhynchophorus ferrugineus; assay: Pesticidal activity against Rhynchophorus ferrugineus (red palm weevil) larvae assessed as mortality at 1.5 ppm, po at 90 hr post-treatment relative to control
[37] = test system: Rhynchophorus ferrugineus; assay: Pesticidal activity against Rhynchophorus ferrugineus (red palm weevil) larvae assessed as mortality at 1000 ppm administered topically at 36 hr post-treatment
[38] = test system: Rhynchophorus ferrugineus; assay: Pesticidal activity against adult Rhynchophorus ferrugineus (red palm weevil) assessed as time required for 100% mortality at 1.5 ml/l administered topically
[39] = test system: Rhynchophorus ferrugineus; assay: Pesticidal activity against Rhynchophorus ferrugineus (red palm weevil) larvae assessed as mortality at 100 ppm administered topically at 48 hr post-treatment
[40] = test system: Rhynchophorus ferrugineus; assay: Pesticidal activity against Rhynchophorus ferrugineus (red palm weevil) cocoons assessed as time required for total mortality at 2.5 ml/l administered by dipping for 10 secs
[41] = test system: Rhynchophorus ferrugineus; assay: Pesticidal activity against Rhynchophorus ferrugineus (red palm weevil) cocoon assessed as mortality at 4 ppm administered by dipping for 3 min measured at 114 hr post-treatment relative to control
[42] = test system: Rhynchophorus ferrugineus; assay: Contact toxicity against Rhynchophorus ferrugineus (red palm weevil) adults assessed as time required for 100% reversible knockdown at 3.5 ml/l for 2 min

O=[N+]([O-])/N=C1\NCCN1Cc1ccc(Cl)nc1 [IMIDACLOPRID] gave an Activity [1] of 0%, an Activity [2] of 61.9% and an Activity [3] of 0%. It also gave an Activity [4] of 0%, an Activity [5] of 38.9% and an Activity [6] of 0%. The Activity [7] was 72.2%, the Time [8] was 6.1 days and the Time [9] was 2.2 days. The Time [10] was 5.9 days, the Activity [11] was 72.2% and the Activity [12] was 38.9%. For the same compound, the Time [13] was 1.1 days, the Time [14] was 1 days and the Time [15] was 2 days. The Activity [16] was 72.2%, the Activity [17] was 72.2% and the Time [18] was 6 days. It also gave a Time [19] of 10.1 days, an Activity [20] of 0% and an Activity [21] of 0%. It also gave an Activity [22] of 72.2%, a Time [23] of 8.1 days and an Activity [24] of 0%. The Activity [25] was 44.4%, the Activity [26] was 38.9% and the Activity [27] was 100%. The Activity [28] was 72.2%, the Activity [29] was 100% and the Activity [30] was 100%. The Activity [31] was 72.2%, the Activity [32] was 0% and the Time [33] was 4.2 days. It also gave an Activity [34] of 38.9%, an Activity [35] of 100% and an Activity [36] of 100%. For the same compound, the Activity [37] was 72.2%, the Time [38] was 11.5 days and the Activity [39] was 0%. For the same compound, the Time [40] was 9.6 days, the Activity [41] was 72.2% and the Time [42] was 3.2 days.
